The IC50 is the midpoint of a concentration-inhibition curve. Usually EC50 stands for the concentration giving half of the maximal effect.

Like-named read-outs stand apart in the source and are kept apart here. Some results are limits rather than exact numbers.

The subject of series [1] is HeLa cells. Put plainly: Light-induced and dark cytotoxicity, CCK-8 assay, HeLa cells. Format: cell-based. To be noted: for IC50: 24 hours, mean ± SD; for light-induced (photo-induced) cytotoxicity (in words): with or without blue light irradiation. As to the method:
(§1) HeLa cells and MCF-7 cells were purchased from ATCC (Manassas, VA). HeLa cells were cultured in high glucose DMEM culture medium (Sigma-Aldrich; St. Louis, MO) with glutamine, without sodium pyruvate, and supplemented with 10% fetal bovine serum (FBS) and 1% penicillin and […]. MCF-7 cells were cultured in MEM culture medium (Sigma-Aldrich) supplemented with 10% FBS and 1% penicillin and […]. Cells were incubated in 37° C. incubator with 5% CO2. Under dim light, compounds were dissolved in DMSO to form 20 mM stock solution and serially diluted in 96-well plate with full culture medium to form the working solution with DMSO concentration being 0.5% in all wells. HeLa and MCF-7 cells were seeded in 96-well plate at a density of 10^5/100 μL/well and incubated overnight, and then the culture medium was replaced with 100 μL of the compound-loaded working solution. The dark treatment group was kept in the incubator for 24 hours. The exposure treatment group was allowed to incubate for 30 minutes, followed by exposure with blue light for the designated time (5 min for 0.45 J/cm^2). After exposure, cells were returned to the incubator and incubated for 24 hours. 10 μL CCK-8 solution (Dojindo, Japan) was added to the cells in each well and incubated for 2 hours. The optical density at 450 nm of each well was read with the Perkin-Elmer Vector 3 plate reader (USA). Cells treated with 0.5% DMSO were used as the vehicle control and 100 μL culture medium with 10 μL CCK-8 was used as the blank control. Cell viability was calculated as: […]
(§2) All tests were in triplicate, and the IC50 was calculated with non-linear regression of concentration and cell viability by Graphpad Prism.
BW-PS-101 was incubated with cervical carcinoma HeLa cell line under darkness. After incubation for 30 min to facilitate internalization, cells were exposed to a low-power blue LED array (470 nm, 1.5 mW/cm^2, as described above) for 5 minutes (total irradiation energy 0.45 J/cm^2) and incubated for an additional 24 hours under darkness followed by cell viability determination with CCK-8 assay.

The subject of the next series is MCF-7 cells. Put plainly: Light-induced and dark cytotoxicity, CCK-8 assay, MCF-7 cells. It counts as cell-based. To be noted: 24 hours, mean ± SD. As to the method: FIGS. 3A-3K are graphs showing the dose response of compounds as described herein in MCF-7 cells. […] The cells were treated and allowed the incubate for 24 hours (labeled in the figures as the compound name followed by “DARK”) or were treated, incubated for 30 minutes, exposed to light for a designated time, and then incubated for 24 hours (labeled in the figures as the compound name followed by “EXPO”).
as §1, §2
Additional compounds as described herein were tested. […] Light-induced cytotoxicity was then evaluated. […] PS-107, a compound with the furan ring replaced by phenyl, was synthesized as the structural mimetic control. […] All compounds were also tested against MCF-7 breast cancer cell line, which gave a similar trend of activity (Table 4).

Another series in a line: Quantum yield ϕΔ in MeOH. Format: physicochemical.
For series [2], the system named is HeLa cells. In words: Light-induced and dark cytotoxicity, CCK-8 assay, HeLa cells. It counts as cell-based. To be noted: light energy 1.8 J/cm^2. (Tetrazolium dyes change colour on reduction, which living cells bring about.)
A further series has as its system early endosomes. In words: Fluorescence microscopy, endosome localization. Format: cell-based. To be noted: for accumulation / enrichment in endosomes: fluorescence microscopy / imaging studies. Here is the method:
FIG. 8 are fluorescence microscopy images of BW-PS-105 (first row), BW-PS-110 (second row), and BW-PS-120 (third row) localized in early endosomes.
The trimethoxy substituted analog BW-PS-105, which was fluorescent with an Ex/Em wavelength of 491 nm/574 nm, was incubated with HeLa cell at a concentration of 1 μM. […] Endosome enrichment of the photosensitizer led to the potency increase of about 5 folds. Targeting photosensitizers to the endosome efficiently induces cancer cell apoptosis by photodynamic therapy.

The subject of a further series is SARS-CoV-2. In words: Inhibition of SARS-CoV-2 replication in infected Huh7 cells. To be noted: read-out: EC50, inhibition of viral replication against SARS-COV-2. It counts as cell-based. As to the method: FIGS. 1A-1C are graphs showing the inhibition of SARS-CoV-2 replication in Huh-7 cells by BW-PS-108 (FIG. 1A), BW-PS-109 (FIG. 1B), and Compound 136 (FIG. 1C). The top line in FIGS. 1A and 1B represent cytotoxicity. Cell pellets from infected cells were collected at 48 hours after infection and viral RNA levels were measured by RT-PCR.
No solubility issues were encountered when studying their toxicity at 100 μM.
The potency levels of the compounds described herein compare favorably against remdesivir and molnupiravir. […] Further, the potency levels of the compounds described herein were also higher than Compound 136.

Where [3] appears, read: Homo sapiens, HeLa, light or radiation study, blue light, exposure light energy density 0.45 J/cm^2, read-out: Hela cells Exposure IC50.
Where [4] appears, read: Homo sapiens, HeLa, dark, read-out: Hela cells Dark IC50.
Where [5] appears, read: Homo sapiens, MCF7, light or radiation study, blue light, exposure light energy density 0.45 J/cm^2, read-out: MCF-7 cells Exposure IC50.
Where [6] appears, read: Homo sapiens, MCF7, dark, read-out: MCF-7 cells Dark IC50.
Where [7] appears, read: viral RNA by RT-PCR 48 hours after infection.
Setting [8] is: blue light, exposure light energy density 0.45 J/cm^2, read-out: Hela cells Exposure IC50.
Setting [9] is: dark, read-out: Hela cells Dark IC50.
[10] abbreviates: blue light, exposure light energy density 0.45 J/cm^2, read-out: MCF-7 cells Exposure IC50.
Setting [11] is: dark, read-out: MCF-7 cells Dark IC50.

On to `CCCN1C(=O)/C(=C/c2ccc(-c3ccccc3)o2)SC1=S` [BW-PS-101, (Z)-5-((5-phenylfuran-2-yl)methylene)-3-propyl-2-thioxothiazolidin-4-one], for which the “cytotoxicity of cells treated in the dark (in words)” value in the series with HeLa cells [1] (HeLa, dark, up to 100 μM) is reported as “did not show any cytotoxicity”. The half-inhibitory concentration (IC50) in the series on HeLa cells [1] (setting [3]) was 1380 ± 50 nM; in the series on HeLa cells [1] (setting [4]) it was more than 100000 nM; with MCF-7 cells (setting [5]), 740 ± 140 nM; in the series on MCF-7 cells (setting [6]) it was more than 100000 nM. Besides, in the series “Quantum yield ϕΔ in MeOH”, the “ϕΔ MeOH)” value was 0.109. Moreover, the “IC50 in the HeLa cell at higher light energy” value with HeLa cells [2] is recorded as “submicromolar range”.
`CCCN1C(=O)/C(=C/c2ccc(-c3ccc(F)cc3)o2)SC1=S` [BW-PS-102, (Z)-5-((5-(4-fluorophenyl)furan-2-yl)methylene)-3-propyl-2-thioxothiazolidin-4-one]: the IC50 was 1480 ± 140 nM in the series on HeLa cells [1] (setting [3]), more than 100000 nM in the series on HeLa cells [1] (setting [4]), 1260 ± 4 nM with MCF-7 cells (setting [5]) and more than 100000 nM in the series on MCF-7 cells (setting [6]). Besides, in the series with HeLa cells [1], the “light-induced (photo-induced) cytotoxicity (in words)” value was “comparable activity as BW-PS-101”. Moreover, in “Quantum yield ϕΔ in MeOH”, the “ϕΔ MeOH)” value was 0.075.
Turning to `CCCN1C(=O)/C(=C/c2ccc(-c3ccc(O)cc3)o2)SC1=S` [BW-PS-103, (Z)-5-((5-(4-hydroxyphenyl)furan-2-yl)methylene)-3-propyl-2-thioxothiazolidin-4-one], the half-maximal inhibitory concentration (IC50) was 3580 ± 130 nM with HeLa cells [1] (setting [3]), more than 100000 nM with HeLa cells [1] (setting [4]), 4250 ± 170 nM with MCF-7 cells (setting [5]) and approximately 100000 nM with MCF-7 cells (setting [6]). In “Quantum yield ϕΔ in MeOH”, the “ϕΔ MeOH)” value was determined as 0.007.
For `CCCN1C(=O)/C(=C/c2ccc(-c3ccc(OC)cc3)o2)SC1=S` [BW-PS-104, (Z)-5-((5-(4-methoxyphenyl)furan-2-yl)methylene)-3-propyl-2-thioxothiazolidin-4-one] the same measures were 2710 ± 230 nM, more than 100000 nM, 2870 ± 920 nM, more than 100000 nM and 0.015.
With `CCCN1C(=O)/C(=C/c2ccc(-c3cc(OC)c(OC)c(OC)c3)o2)SC1=S` [BW-PS-105, (Z)-3-propyl-2-thioxo-5-((5-(3,4,5-trimethoxyphenyl)furan-2-yl)methylene)thiazolidin-4-one], the IC50 with HeLa cells [1] (setting [3]) was 2130 ± 300 nM; with HeLa cells [1] (setting [4]) it was more than 100000 nM; with MCF-7 cells (setting [5]), 2710 ± 780 nM; with MCF-7 cells (setting [6]), more than 100000 nM. The “ϕΔ MeOH)” value in the series “Quantum yield ϕΔ in MeOH” worked out at 0.028. The “accumulation / enrichment in endosomes” value in the series with early endosomes is on record as “accumulation”.
As to `CCCN1C(=O)/C(=C/c2ccc(-c3ccc(C(F)(F)F)cc3)o2)SC1=S` [BW-PS-106, (Z)-3-propyl-2-thioxo-5-((5-(4-(trifluoromethyl)phenyl)furan-2-yl)methylene)thiazolidin-4-one], the IC50 with HeLa cells [1] (setting [3]) is 2960 ± 90 nM; with HeLa cells [1] (setting [4]), more than 100000 nM; with MCF-7 cells (setting [5]) it was 2580 ± 730 nM; in the series with MCF-7 cells (setting [6]), more than 100000 nM. Further, the “ϕΔ MeOH)” value in “Quantum yield ϕΔ in MeOH” was 0.182.
Regarding `CCCN1C(=O)/C(=C/c2cccc(-c3ccc(F)cc3)c2)SC1=S` [BW-PS-107, (Z)-5-((4′-fluoro-[1,1′-biphenyl]-3-yl)methylene)-3-propyl-2-thioxothiazolidin-4-one], the half-maximal inhibitory concentration (IC50) in the series on HeLa cells [1] (setting [3]) and in the series with MCF-7 cells (setting [5]) was more than 100000 nM each time. Further, in the series with HeLa cells [1], the “light-induced (photo-induced) cytotoxicity (in words)” value is reported as “did not show any photo-induced cytotoxicity”.
`O=C1C(=Cc2ccc(-c3ccccc3)o2)SC(=S)N1CCN1CCOCC1` [BW-PS-108]: the concentration for a half-maximal effect (EC50) with SARS-CoV-2 (setting [7]) is 280 nM. Moreover, the half-inhibitory concentration (IC50) was 950 ± 20 nM in the series with HeLa cells [1] (setting [8]), more than 100000 nM with HeLa cells [1] (setting [9]), 1220 ± 10 nM in the series with MCF-7 cells (setting [10]) and more than 100000 nM in the series on MCF-7 cells (setting [11]). The “ϕΔ MeOH)” value in the series “Quantum yield ϕΔ in MeOH” came out at 0.086.
With `O=C1C(=Cc2ccc(-c3ccc(C(F)(F)F)cc3)o2)SC(=S)N1CCN1CCOCC1` [BW-PS-109], the EC50 with SARS-CoV-2 (setting [7]) turned out to be 190 nM. Moreover, the IC50 in the series with HeLa cells [1] (setting [8]) was 630 ± 70 nM; in the series with HeLa cells [1] (setting [9]), more than 100000 nM; in the series on MCF-7 cells (setting [10]), 530 ± 90 nM; in the series on MCF-7 cells (setting [11]), more than 100000 nM. For the same molecule, the “ϕΔ MeOH)” value in the series “Quantum yield ϕΔ in MeOH” is recorded as 0.115.
In the case of `COc1cc(-c2ccc(C=C3SC(=S)N(CCN4CCOCC4)C3=O)o2)cc(OC)c1OC` [BW-PS-110], the half-maximal inhibitory concentration (IC50) was 1740 ± 160 nM in the series on HeLa cells [1] (setting [8]), more than 100000 nM in the series with HeLa cells [1] (setting [9]), 1250 ± 170 nM in the series with MCF-7 cells (setting [10]) and more than 100000 nM in the series with MCF-7 cells (setting [11]). In addition, the “co-localization with the endosome marker CellularLight endosomes-GFP” value in the series on early endosomes (fluorescence microscopy) is “good co-localization”. Also, in the series on early endosomes, the “accumulation / enrichment in endosomes” value is reported as “accumulation”.
As for `N.N.[Cl][Pt][Cl]` [Cisplatin, cisplatin, reference compound], the 50% inhibitory concentration (IC50) with HeLa cells [1] (setting [8]) amounted to 5950 ± 170 nM; with HeLa cells [1] (setting [9]), 7540 ± 450 nM; in the series with MCF-7 cells (setting [10]), 13300 ± 1450 nM; with MCF-7 cells (setting [11]), 12500 ± 2860 nM.
As for `CCC(CC)COC(=O)[C@H](C)N[P@](=O)(OC[C@H]1O[C@@](C#N)(c2ccc3c(N)ncnn23)[C@H](O)[C@@H]1O)Oc1ccccc1` [remdesivir, reference compound], the concentration for a half-maximal effect (EC50) in the series on SARS-CoV-2 (Severe acute respiratory syndrome coronavirus 2, Huh-7, viral RNA by RT-PCR 48 hours after infection) worked out at 700 nM.

For the origin of these results see US20250011292A1, “NOVEL RHODANINE DERIVATIVES AND USES THEREOF” (priority 2021, published 2025).
